Reference: patent US20260240844A1, “INHIBITORS OF CHD1L AND USES THEREOF” (The Regents of the University of Colorado, a body corporate, priority 2023, published 2026)

What was measured:
cat-CHD1L = target: T1, cat-CHD1L (Homo sapiens, UniProt Q86WJ1); experiment: CHD1L ATPase assay measured by ADP-Glo; assay type: biochemical
T1 construct: made in house; host or cells: Rosetta 2 (DE3) pLysS cells (E. coli)
T1 sequence (Q86WJ1 16-619): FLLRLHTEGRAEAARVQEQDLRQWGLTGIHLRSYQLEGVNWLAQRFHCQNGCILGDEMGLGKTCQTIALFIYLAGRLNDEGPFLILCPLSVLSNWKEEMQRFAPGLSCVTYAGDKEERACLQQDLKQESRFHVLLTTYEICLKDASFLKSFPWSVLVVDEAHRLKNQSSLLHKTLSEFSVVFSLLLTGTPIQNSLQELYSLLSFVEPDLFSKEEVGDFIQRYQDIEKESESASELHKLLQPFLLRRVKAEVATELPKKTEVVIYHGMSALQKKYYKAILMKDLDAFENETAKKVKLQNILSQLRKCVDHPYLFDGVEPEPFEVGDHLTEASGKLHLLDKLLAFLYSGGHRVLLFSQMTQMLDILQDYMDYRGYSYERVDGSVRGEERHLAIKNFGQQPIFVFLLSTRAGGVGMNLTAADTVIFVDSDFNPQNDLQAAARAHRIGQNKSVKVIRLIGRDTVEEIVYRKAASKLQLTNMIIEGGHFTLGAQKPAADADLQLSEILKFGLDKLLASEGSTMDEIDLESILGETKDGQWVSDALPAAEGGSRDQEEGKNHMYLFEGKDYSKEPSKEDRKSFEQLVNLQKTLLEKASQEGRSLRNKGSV
Protocol: No enzyme control was used to measure the background. […] The reaction was incubated at 37° C. for 1 h. The assay plate was brought to RT before 5 μL of ADP-glo™ Reagent (Promega, Cat. No. V9102) was added to remove unreacted ATP. The ATP depletion step was carried out at RT for 40 min before 10 μL of Kinase Detection Reagent was added and incubated for 30-60 min to convert the ADP produced from the enzyme assay back to ATP for luciferase rection to convert to light for detection. An EnVision plate reader (PerkinElmer) was used to detect luminescence from the ADP-glo assay and the enzyme activity was determined after background subtraction and normalization to enzyme only control.

CHD1L = target: T2, CHD1L (Homo sapiens, UniProt Q86WJ1); experiment: CHD1L trapping (in situ subcellular fractionation, immunofluorescence); assay type: cell-based
T2 sequence (Q86WJ1 1-897): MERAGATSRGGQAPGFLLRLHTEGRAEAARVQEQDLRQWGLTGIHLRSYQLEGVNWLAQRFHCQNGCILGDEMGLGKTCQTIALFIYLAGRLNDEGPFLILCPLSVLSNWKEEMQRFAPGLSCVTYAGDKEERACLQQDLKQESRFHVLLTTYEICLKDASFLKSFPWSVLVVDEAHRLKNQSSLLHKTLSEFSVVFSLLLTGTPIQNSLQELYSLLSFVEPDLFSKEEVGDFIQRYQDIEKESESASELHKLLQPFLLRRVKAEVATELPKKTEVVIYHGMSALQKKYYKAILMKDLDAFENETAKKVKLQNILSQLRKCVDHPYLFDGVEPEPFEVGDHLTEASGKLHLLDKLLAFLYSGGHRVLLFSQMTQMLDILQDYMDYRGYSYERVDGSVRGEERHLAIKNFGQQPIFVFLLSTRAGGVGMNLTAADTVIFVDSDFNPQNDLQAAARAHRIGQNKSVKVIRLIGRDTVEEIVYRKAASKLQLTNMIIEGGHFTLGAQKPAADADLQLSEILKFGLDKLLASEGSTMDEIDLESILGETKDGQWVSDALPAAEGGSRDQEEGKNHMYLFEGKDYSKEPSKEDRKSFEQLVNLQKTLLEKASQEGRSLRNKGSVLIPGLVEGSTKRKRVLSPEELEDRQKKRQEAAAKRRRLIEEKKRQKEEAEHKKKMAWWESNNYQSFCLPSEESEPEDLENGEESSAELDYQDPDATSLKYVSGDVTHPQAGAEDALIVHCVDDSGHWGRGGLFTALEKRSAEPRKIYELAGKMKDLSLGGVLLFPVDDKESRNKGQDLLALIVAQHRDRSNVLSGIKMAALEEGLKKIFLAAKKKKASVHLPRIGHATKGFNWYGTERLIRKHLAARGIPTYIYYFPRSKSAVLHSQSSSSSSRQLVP
Source text: Other studies on the role of CHD1L used cell lines with knockdown or knockouts of the gene encoding for CHD1L and have never been able to study the result of its enzymatic inhibition.

PARP2 = PARP2 (Homo sapiens, UniProt Q9UGN5); experiment: PARP2 enzymatic (colorimetric) assay; assay type: biochemical
PARP2, sequence (Q9UGN5 whole entry): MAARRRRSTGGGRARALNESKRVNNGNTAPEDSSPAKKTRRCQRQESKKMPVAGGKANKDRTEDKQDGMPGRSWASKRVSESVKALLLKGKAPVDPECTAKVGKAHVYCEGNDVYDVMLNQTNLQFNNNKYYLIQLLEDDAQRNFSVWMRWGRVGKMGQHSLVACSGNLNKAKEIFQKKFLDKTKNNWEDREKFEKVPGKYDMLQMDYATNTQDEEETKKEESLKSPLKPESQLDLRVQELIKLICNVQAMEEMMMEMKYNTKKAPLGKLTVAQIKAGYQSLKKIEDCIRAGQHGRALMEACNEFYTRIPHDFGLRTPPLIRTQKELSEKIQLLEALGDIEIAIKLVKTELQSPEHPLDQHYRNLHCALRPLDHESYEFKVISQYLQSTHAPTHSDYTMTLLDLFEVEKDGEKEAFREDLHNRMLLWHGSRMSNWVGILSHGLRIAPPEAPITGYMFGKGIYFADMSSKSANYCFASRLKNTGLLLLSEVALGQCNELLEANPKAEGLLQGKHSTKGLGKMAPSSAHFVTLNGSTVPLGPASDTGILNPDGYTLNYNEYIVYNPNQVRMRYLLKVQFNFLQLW
Protocol: . First, a 96 well plate was coated with histones. Next, the biotinylated NAD^+ substrate was incubated with an activated DNA template, the inhibitor to test and the PARP1/2 enzyme for 1 h at RT. After that, the sample plate was treated with streptavidin-RP for 30 min at RT, followed by addition of the horseradish peroxidase (HRP) substrate until the colorimetric signal was developed. The EnVision plate reader (PerkinElmer) was used to measure the absorbance at 450 nm and the results were plotted and analyzed using GraphPad Prism.

HCC1937 tumor organoids = experiment: Tumor organoid cytotoxicity, HCC1937; assay type: cell-based; conditions: Homo sapiens; HCC1937 (BRCA1 mutant HR-deficient); read-out: IC50, tumor organoid viability, single agent
Protocol: Tumor organoid culture—Cell lines were cultured as tumor organoids by seeding 2,000 to 5,000 cells/well into uncoated 96 well U-bottom Ultra Low Attachment Microplates (Corning) using their corresponding medium. Cell aggregation was then promoted by centrifugation of the plates for 15 min at 1,000 rpm followed by the addition of Matrigel (Corning) to a 2-5% final concentration. Tumor organoids were maintained under standard cell culture conditions for 72 h prior to drug treatment.
Organoids were then transferred to a white solid bottom 96 well plate and incubated with an equal volume of CellTiter Glo 3D reagent (Promega) for 45 min on a shaker at 400 rpm. Luminescence was recorded using the EnVision plate reader (PerkinElmer) and values normalized to the controls using GraphPad Prism.

SUM149PT tumor organoids = experiment: Tumor organoid cytotoxicity (CellTiter Glo 3D), SUM149PT; assay type: cell-based
Protocol: Tumor organoid culture—Cell lines were cultured as tumor organoids by seeding 2,000 to 5,000 cells/well into uncoated 96 well U-bottom Ultra Low Attachment Microplates (Corning) using their corresponding medium.
Luminescence was recorded using the EnVision plate reader (PerkinElmer) and values normalized to the controls using GraphPad Prism.

In the case of `Cc1cc(Nc2ccc(NC(=O)Cc3cccs3)cc2)nc(N2CCCC2)n1` [Compound 6, N-(4-((6-methyl-2-(pyrrolidin-1-yl)pyrimidin-4-yl)amino)phenyl)-2-(thiophen-2-yl)acetamide], the “inhibition of CHD1L ATPase activity” value (cat-CHD1L) is reported as “potently inhibited”, the “CHD1L trapping in combination” value (CHD1L; Compound 6 combined with olaparib) is reported as “complete decrease in the CHD1L trapping” and the “CHD1L trapping onto chromatin/nucleosomes” value (CHD1L; single agent, SUM149PT + 0.01% MMS 4 h, BC and CRC cells) is reported as “dose-dependent increase in CHD1L trapping”. The PARP2 enzyme activity (PARP2) was “does not have any effect on PARP1/2 activity”, the IC50 (HCC1937 tumor organoids) was 2.8 µM and the IC50 (SUM149PT tumor organoids; Homo sapiens, SUM149PT, SUM149PT (BRCA1 mutant HR-deficient), read-out: IC50, tumor organoid viability, single agent) was 1.7 µM. The “Bliss synergy score, cytotoxicity” value (SUM149PT tumor organoids; SUM149PT tumor organoids, Compound 6 combined with 5-FU) was 59.
